Measured values published in US11666578B2, “Small molecule inhibitors of CDK12/CDK13” (The Scripps Research Institute, priority 2018, dated 2023).
≈ marks a conversion by molar mass, not a printed value. Where “and” joins values, the source holds several entries; their conditions need not be identical. Equal entries are not always repeated. Where two headings read alike, the source gives them in different places.

Key:
U87 cell line = assay: Cell proliferation / growth inhibition, U87, 72 h (Cell-Titer Glo); type: cell-based; details: Homo sapiens, U-87 MG
CYP 2D6 = CYP 2D6 (Homo sapiens, UniProt P10635); assay: Cytochrome P450 inhibition assay, 2D6; type: in vitro ADME
Sequence of CYP 2D6 (P10635 whole entry): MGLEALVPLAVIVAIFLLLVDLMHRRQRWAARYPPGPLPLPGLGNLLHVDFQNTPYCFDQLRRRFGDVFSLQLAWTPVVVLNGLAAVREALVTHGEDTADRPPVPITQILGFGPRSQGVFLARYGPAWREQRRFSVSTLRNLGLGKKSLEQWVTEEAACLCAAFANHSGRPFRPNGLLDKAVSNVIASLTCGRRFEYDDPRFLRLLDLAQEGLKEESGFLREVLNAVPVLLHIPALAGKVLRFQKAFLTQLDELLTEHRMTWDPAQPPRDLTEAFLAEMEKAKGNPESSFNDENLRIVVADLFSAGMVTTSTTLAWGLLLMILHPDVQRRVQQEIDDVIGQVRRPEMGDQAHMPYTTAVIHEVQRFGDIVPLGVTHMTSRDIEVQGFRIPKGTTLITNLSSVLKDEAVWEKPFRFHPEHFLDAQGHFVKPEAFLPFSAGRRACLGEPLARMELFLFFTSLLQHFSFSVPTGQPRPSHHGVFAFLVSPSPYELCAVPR

CYP 1A2 = target: T1, CYP 1A2 (Homo sapiens, UniProt P05177); assay: Cytochrome P450 inhibition assay, 1A2; type: in vitro ADME
T1 sequence (P05177 1-516): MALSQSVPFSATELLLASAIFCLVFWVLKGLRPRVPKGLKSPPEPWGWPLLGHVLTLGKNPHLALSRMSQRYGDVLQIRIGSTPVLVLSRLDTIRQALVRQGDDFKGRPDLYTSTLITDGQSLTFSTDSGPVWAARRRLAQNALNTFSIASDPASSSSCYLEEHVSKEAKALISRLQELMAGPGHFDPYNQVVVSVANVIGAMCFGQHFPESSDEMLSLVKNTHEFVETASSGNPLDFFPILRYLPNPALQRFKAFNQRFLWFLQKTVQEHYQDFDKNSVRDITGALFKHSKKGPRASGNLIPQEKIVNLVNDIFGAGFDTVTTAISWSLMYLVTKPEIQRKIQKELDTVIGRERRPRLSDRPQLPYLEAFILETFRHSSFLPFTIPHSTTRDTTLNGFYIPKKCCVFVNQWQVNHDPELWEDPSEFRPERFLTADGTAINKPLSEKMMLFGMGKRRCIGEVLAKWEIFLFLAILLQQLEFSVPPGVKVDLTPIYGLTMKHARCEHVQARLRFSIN

[1] = Microsome stability, rat liver microsomes; type: in vitro ADME; details: read-out: Microsome stability t1/2 (R)
CYP 3A4 = CYP 3A4 (Homo sapiens, UniProt P08684); assay: Cytochrome P450 inhibition assay, 3A4; type: in vitro ADME
Sequence of CYP 3A4 (P08684 whole entry): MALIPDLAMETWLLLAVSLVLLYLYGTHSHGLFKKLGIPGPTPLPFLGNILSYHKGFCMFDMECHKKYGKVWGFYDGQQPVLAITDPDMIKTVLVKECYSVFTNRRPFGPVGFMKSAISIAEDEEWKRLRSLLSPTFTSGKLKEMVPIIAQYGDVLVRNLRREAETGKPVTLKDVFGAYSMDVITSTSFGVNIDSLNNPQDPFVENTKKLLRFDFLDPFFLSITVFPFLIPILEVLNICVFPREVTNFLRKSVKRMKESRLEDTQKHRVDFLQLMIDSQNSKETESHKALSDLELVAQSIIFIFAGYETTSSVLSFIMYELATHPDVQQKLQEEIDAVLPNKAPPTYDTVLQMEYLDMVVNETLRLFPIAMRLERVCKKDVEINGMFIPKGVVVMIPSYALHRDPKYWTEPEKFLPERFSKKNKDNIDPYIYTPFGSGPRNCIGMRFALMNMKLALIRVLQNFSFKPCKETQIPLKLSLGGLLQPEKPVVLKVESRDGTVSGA

[2] = Solubility in pH 7.4 phosphate buffered saline; type: physicochemical; details: aqueous buffer
CYP 2C9 = CYP 2C9 (Homo sapiens, UniProt P11712); assay: Cytochrome P450 inhibition assay, 2C9; type: in vitro ADME
Sequence of CYP 2C9 (P11712 whole entry): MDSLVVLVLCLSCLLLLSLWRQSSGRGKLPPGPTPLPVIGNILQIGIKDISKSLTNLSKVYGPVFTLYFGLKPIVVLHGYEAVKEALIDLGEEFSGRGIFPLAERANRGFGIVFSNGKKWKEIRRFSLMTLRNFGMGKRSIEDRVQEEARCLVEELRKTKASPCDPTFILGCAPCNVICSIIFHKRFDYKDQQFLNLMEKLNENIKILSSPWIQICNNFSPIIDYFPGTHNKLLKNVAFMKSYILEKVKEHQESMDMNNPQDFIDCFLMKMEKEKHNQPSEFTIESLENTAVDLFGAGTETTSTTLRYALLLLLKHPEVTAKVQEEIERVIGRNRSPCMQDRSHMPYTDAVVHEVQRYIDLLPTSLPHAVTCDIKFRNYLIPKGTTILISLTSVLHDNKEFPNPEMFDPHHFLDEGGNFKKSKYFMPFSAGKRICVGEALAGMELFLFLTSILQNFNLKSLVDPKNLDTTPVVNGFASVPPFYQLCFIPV

[3] = Microsome stability, human liver microsomes; type: in vitro ADME; details: read-out: Microsome stability t1/2 (H)
MDA-MB-231 cell line = assay: Cell proliferation / growth inhibition, MDA-MB-231, 72 h (Cell-Titer Glo); type: cell-based; details: Homo sapiens
[4] = Microsome stability, mouse liver microsomes; type: in vitro ADME; details: read-out: Microsome stability t1/2
Mouse PK = type: in vivo; details: for AUC: read-out: AUCINF_dos (converted)
CK1ε = CK1ε (Homo sapiens, UniProt P49674); assay: In-house kinase inhibition assay, CK1ε; type: biochemical
Sequence of CK1ε (P49674 whole entry): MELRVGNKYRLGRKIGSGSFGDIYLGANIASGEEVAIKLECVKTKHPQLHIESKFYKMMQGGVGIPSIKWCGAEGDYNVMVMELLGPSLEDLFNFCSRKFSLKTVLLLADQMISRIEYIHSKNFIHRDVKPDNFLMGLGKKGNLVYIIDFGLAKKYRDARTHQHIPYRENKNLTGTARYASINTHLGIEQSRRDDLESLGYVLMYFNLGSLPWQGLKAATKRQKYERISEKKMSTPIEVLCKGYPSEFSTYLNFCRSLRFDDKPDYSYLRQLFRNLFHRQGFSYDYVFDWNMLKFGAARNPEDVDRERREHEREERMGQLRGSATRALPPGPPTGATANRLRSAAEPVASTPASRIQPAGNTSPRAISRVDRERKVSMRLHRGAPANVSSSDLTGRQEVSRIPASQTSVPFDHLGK
Source text: (§1) [drawing 21] wherein the substituents W, X, Y, Z, and R^1, are as specified in the respective Table columns.

CDK13 = target: T2, CDK13 (Homo sapiens, UniProt Q14004); assay: Competition binding assay, DiscoverX (Kinomescan), CDK13
T2 construct: purchased DiscoverX
T2 sequence (Q14004 whole entry): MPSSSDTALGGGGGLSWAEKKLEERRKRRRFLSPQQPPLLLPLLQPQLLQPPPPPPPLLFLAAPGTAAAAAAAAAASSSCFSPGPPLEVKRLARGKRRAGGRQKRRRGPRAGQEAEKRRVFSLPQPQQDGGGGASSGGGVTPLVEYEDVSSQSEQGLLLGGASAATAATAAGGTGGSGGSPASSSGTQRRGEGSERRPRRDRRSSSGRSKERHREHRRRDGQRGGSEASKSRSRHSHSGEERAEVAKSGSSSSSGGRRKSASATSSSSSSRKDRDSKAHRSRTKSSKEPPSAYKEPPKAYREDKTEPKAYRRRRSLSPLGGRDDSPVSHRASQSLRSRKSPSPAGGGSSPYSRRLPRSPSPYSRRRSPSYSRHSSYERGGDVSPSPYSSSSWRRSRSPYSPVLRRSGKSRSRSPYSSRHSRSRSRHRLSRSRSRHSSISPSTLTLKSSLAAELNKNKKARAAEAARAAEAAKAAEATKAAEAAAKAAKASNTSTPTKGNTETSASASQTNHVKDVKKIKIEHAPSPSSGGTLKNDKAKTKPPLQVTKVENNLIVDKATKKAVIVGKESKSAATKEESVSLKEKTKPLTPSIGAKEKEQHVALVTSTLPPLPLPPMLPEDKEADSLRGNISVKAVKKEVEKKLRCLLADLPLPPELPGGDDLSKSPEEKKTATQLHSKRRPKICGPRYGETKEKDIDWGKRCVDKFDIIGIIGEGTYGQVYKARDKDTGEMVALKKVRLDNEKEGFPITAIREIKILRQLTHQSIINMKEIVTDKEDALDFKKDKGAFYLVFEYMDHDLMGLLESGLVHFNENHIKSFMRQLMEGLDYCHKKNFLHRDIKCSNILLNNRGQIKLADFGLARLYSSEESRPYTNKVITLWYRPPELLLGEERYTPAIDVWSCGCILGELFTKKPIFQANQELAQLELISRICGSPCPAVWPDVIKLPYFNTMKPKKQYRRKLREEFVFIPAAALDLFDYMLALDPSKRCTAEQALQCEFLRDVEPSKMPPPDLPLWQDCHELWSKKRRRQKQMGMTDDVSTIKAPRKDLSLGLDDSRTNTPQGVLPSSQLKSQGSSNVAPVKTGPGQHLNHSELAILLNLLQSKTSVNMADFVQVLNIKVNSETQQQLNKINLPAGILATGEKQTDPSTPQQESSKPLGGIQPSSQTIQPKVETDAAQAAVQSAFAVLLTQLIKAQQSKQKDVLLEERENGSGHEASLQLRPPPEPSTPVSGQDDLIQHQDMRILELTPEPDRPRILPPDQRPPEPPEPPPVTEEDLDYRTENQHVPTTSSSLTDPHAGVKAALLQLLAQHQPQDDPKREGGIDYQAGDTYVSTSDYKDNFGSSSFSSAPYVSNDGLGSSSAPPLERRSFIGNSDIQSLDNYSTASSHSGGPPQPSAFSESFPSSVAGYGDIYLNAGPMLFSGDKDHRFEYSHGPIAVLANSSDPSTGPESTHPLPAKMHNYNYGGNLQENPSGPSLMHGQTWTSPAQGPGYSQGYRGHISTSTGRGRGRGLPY
Source text: as §1
In addition to screening a selected set of new inhibitors in CDK12/13 enzyme assays using Kinomescan™ technology, we tested all new compounds in a mechanism of action assay, which detects inhibition of phosphorylation of serine 2 (pSer2) on the C-terminal repeat domain (CTD) of RNA pol II. […] In order to confirm that CDK12/13 inhibition is driving cell death, we also plotted the growth inhibition pIC50's with pSer2 inhibition data. There was a good correlation when using the cell proliferation data from both U87 and MDA-MB-231 cell lines (FIGS. 5 and 6).

CDK12 = target: T3, CDK12 (Homo sapiens, UniProt Q9NYV4); assay: Competition binding assay, DiscoverX (Kinomescan), CDK12
T3 construct: purchased DiscoverX
Source text: as §1
In addition to screening a selected set of new inhibitors in CDK12/13 enzyme assays using Kinomescan™ technology, we tested all new compounds in a mechanism of action assay, which detects inhibition of phosphorylation of serine 2 (pSer2) on the C-terminal repeat domain (CTD) of RNA pol II.

CK1δ = CK1δ (Homo sapiens, UniProt P48730); assay: In-house kinase inhibition assay, CK1δ; type: biochemical
Sequence of CK1δ (P48730 whole entry): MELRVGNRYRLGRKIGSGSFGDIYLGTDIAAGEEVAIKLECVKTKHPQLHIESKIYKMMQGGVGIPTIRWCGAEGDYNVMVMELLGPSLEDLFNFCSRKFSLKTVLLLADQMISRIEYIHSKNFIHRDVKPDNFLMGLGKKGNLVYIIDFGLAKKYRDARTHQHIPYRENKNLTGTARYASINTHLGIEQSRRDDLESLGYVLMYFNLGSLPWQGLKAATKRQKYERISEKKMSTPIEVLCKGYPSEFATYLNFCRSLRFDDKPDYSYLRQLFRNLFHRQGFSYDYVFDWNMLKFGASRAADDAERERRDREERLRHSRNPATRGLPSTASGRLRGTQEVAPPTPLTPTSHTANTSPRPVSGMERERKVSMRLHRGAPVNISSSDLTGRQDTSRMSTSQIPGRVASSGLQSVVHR
Source text: as §1

other CDKs (CDK panel) = assay: Selectivity in CDK panel (% of inhibition at 10 μM); type: biochemical; details: FIG. 2
Experimental: FIGS. 2a and 2b. Selectivity of selected CDK12/13 inhibitors against other CDKs (% of inhibition at 10 μM)

[5] = read-out: CK1δ IC50, read-out: CK1σ IC50

SMILES | CYP inhibition 2D6 (CYP 2D6) [% inh] | CYP inhibition 1A2 (CYP 1A2) [% inh] | half-life [1] [min] | CYP inhibition 3A4 (CYP 3A4) [% inh] | solubility [2] [µM] | CYP inhibition 2C9 (CYP 2C9) [% inh] | half-life [3] [min] | half-life [4] [min] | IC50 (CK1ε) [nM] | IC50 (CK1δ; [5]) [nM] | further results
Fc1ccc2[nH]c(CNc3nc(N4CCOCC4)nc4c3ncn4-c3cscn3)nc2c1F [Compound 4, N-((4,5-difluoro-1H-benzo[d]imidazol-2-yl)methyl)-2-morpholino-9-(thiazol-4-yl)-9H-purin-6-amine] | 57 | 97 | 9 | 89 | 0.8 (≈ 0.376 µg/mL) | 89 | 16 | 6 |  |  | GI50 (U87 cell line): < 2 nM; GI50 (MDA-MB-231 cell line): < 2 nM
Cn1cc(-n2cnc3c(NCc4nc5cc(Cl)c(Cl)cc5[nH]4)nc(N4CCOC[C@H]4CO)nc32)cn1 [Compound 7, (R)-(4-(6-(((5,6-dichloro-1H-benzo[d]imidazol-2-yl)methyl)amino)-9-(1-methyl-1H-pyrazol-4-yl)-9H-purin-2-yl)morpholin-3-yl)methanol] | 29 | 39 | 25 | 54 | 0.7 (≈ 0.371 µg/mL) | 54 | 27 | 18 |  |  | AUC % Extrap (Mouse PK; IP 20 mg/kg): 1.0%; CI_obs (Mouse PK; IP 20 mg/kg): 61.6 mL/min/kg; Tmax (Mouse PK; IP 20 mg/kg): 60 min; T1/2 (Mouse PK; IP 20 mg/kg, 10/10/80 DMSO/Tween-80/water): 223 min; AUC (Mouse PK; in vivo, IP 20 mg/kg): 5530 ng·h/mL
Cc1cc(-n2cnc3c(NCc4nc5c(F)c(F)ccc5[nH]4)nc(N4CCOCC4)nc32)no1 [Compound 3, N-((4,5-difluoro-1H-benzo[d]imidazol-2-yl)methyl)-9-(5-methylisoxazol-3-yl)-2-morpholino-9H-purin-6-amine] | 2 | 5 | 11 | 55 | 3.6 (≈ 1.68 µg/mL) | 23 | 13 | 7 | 1250 | 4740 | Kd (CDK13): 4 nM; Kd (CDK12): 22 nM
Cn1cc(-n2cnc3c(NCc4nc5cc(F)c(F)cc5[nH]4)nc(N4CCOCC4)nc32)cn1 [Compound 2, N-((5,6-difluoro-1H-benzo[d]imidazol-2-yl)methyl)-9-(1-methyl-1H-pyrazol-4-yl) morpholino-9H-purin-6-amine] | 2 | 5 | 18 | 55 | 0.8 (≈ 0.373 µg/mL) | 23 | 39 | 11 | 6500 | > 9900 | 
COc1cc2nc(CNc3nc(N4CCOCC4)nc4c3ncn4-c3cnn(C)c3)[nH]c2cc1Cl [Compound 10] |  |  |  |  |  |  |  |  |  |  | IC50 (CK1δ; read-out: CK1σ IC50): 7730 nM
Cn1cc(-n2cnc3c(NCc4nc5c(F)c(F)ccc5[nH]4)nc(N4CCOCC4)nc32)cn1 [Compound 1, N-((4,5-difluoro-1H-benzo[d]imidazol-2-yl)methyl)-9-(1-methyl-1H-pyrazol-4-yl) morpholino-9H-purin-6-amine] | −3 | 10 | 20 | 56 | 6.1 (≈ 2.85 µg/mL) | 23 | 22 | 9 | 4600 | 8600 | Kd (CDK13): 5 nM; AUC % Extrap (Mouse PK; IP 30 mg/kg): 0.1%; CI_obs (Mouse PK; IP 30 mg/kg): 13.4 mL/min/kg; AUC(0-t) (Mouse PK; in vivo, IP 30 mg/kg): 25400 ng·h/mL and 55 µM·h; half-life (Mouse PK; in vivo, IP 30 mg/kg, 10/10/80 DMSO/Tween-80/water): 179 min; AUC (Mouse PK; in vivo, IP 30 mg/kg): 25500 ng·h/mL; Cmax (Mouse PK; in vivo, IP 30 mg/kg, read-out: Cmax): 9330 ng/mL and 20 µM; Tmax (Mouse PK; in vivo, IP 30 mg/kg, read-out: Tmax): 60 min; Kd (CDK12): 14 nM
Fc1cccc(-n2cnc3c(NCc4nc5c(F)c(F)ccc5[nH]4)nc(N4CCOCC4)nc32)c1 [SR-3029] |  |  |  |  |  |  |  |  |  |  | Selectivity in CDK panel (other CDKs (CDK panel)): good selectivity
Fc1ccc2[nH]c(CNc3nc(N4CCOCC4)nc4c3ncn4-c3nccs3)nc2c1F [Compound 9, N-((4,5-difluoro-1H-benzo[d]imidazol-2-yl)methyl)-2-morpholino-9-(thiazol-2-yl)-9H-purin-6-amine] |  |  |  |  |  |  |  |  | 1070 | 400 | 
Cn1cc(-n2cnc3c(NCc4nc5cc(Cl)c(Cl)cc5[nH]4)nc(N4CCOC[C@@H]4CO)nc32)cn1 [Compound 6, (S)-(4-(6-(((5,6-dichloro-1H-benzo[d]imidazol-2-yl)methyl)amino)-9-(1-methyl-1H-pyrazol-4-yl)-9H-purin-2-yl)morpholin-3-yl)methanol] | 42 | 42 | 19 | 77 | 0.8 (≈ 0.424 µg/mL) | 69 | 21 | 13 |  |  | 
Fc1ccc2[nH]c(CNc3nc(N4CCOCC4)nc4c3ncn4-c3cncs3)nc2c1F [Compound 8, N-((4,5-difluoro-1H-benzo[d]imidazol-2-yl)methyl)-2-morpholino-9-(thiazol-5-yl)-9H-purin-6-amine] |  |  |  |  |  |  |  |  | 632 | 419 | 
